The numbers were not newly measured in patent publication EP1487791B1, “A NOVEL ANTIFUNGAL MOLECULE 2-(3,4-DIMETHYL-2,5-DIHYDRO-1H-PYRROL-2-YL)- METHYLETHYL PENTANOATE” (priority 2002, dated 2003), which cites them from elsewhere.

For the series the following is noted: reported by Zager, R.A., 2000; cited from earlier work.

With `C[C@@H]1[C@H](O)[C@@H](C)/C=C/C=C/C=C/C=C/C=C/C=C/C=C/[C@H](O[C@@H]2O[C@H](C)[C@@H](O)[C@H](N)[C@@H]2O)C[C@@H]2O[C@](O)(C[C@@H](O)C[C@@H](O)[C@H](O)CC[C@@H](O)C[C@@H](O)CC(=O)O[C@H]1C)C[C@H](O)[C@H]2C(=O)O` [amphotericin B], the CT50 is 4.0 to 64.0 µg/mL.
